Assay results reported in patent US9750747B2, “Treatments involving eslicarbazepine acetate or eslicarbazepine” (BAIL-PORTELA & CA, S.A., priority 2011, dated 2017).
Entries after “also recorded” stand apart in the source; their conditions may differ. Read-outs that look alike come from different tables or passages of the source.

Key:
[1] = tested on: α1β2γ2, α2β2γ2, α3β2γ2 or α5β2γ2 GABA-receptors; assay: overall effect on sub-maximal GABA currents (summary of Example 1); assay type: cell-based; details: Ltk cells, all four receptor subtypes
Method: (§1) Carbamazepine (CBZ) aggravates absence seizures in ‘generalized absence epilepsy rats from. Strasbourg’. One putative mechanism for the aggravation is through its reported potentiation of GABAA currents. A study was carried out to determine the effect of eslicarbazepine, R-licarbazepine and carbamazepine on sub-maximal GABA currents in Ltk cells stably expressing α1β2γ2, α2β2γ2, α3β2γ2 or α5β2γ2 GABA-receptors. The whole-cell patch-clamp technique was used to investigate the effects of the test compounds on GABAA receptors.
Used Ltk cells were stably transfected with recombinant GABAA cDNAs: α1β2γ2, α2β2γ2, α3β2γ2 or α5β2γ2 (B'SYS GmbH, Switzerland). Cells were maintained in a humidified atmosphere (95% relative humidity) with 5% CO2 and were grown in D-MEM/F-12 (1×, liquid, with GlutaMax 1) supplemented with 9% foetal bovine serum and 0.9% Penicillin/Streptomycin solution (Gibco BRL). For the electrophysiological experiments cells were cultivated, at a density that enabled single cells to be measured, in medium without antibiotics or antimycotics. Cells were tested 24-48 hours following induction of transgene expression with dexamethasone.
Cells were continuously perfused with bath solution (NaCl 137 mM, KCl 4 mM, CaCl2 1.8 mM, MgCl2 1 mM, D-Glucose 10 mM HEPES 10 mM, pH 7.4). […] GABA inward-currents were measured upon application of 1 or 2 μM GABA to patch-clamped cells (at an EC5). […]

[2] = target: T1, α2β2γ2 GABA receptors (Homo sapiens, UniProt P18507+P47869+P47870); assay: whole-cell patch-clamp, sub-maximal GABA inward currents in stably transfected Ltk cells; assay type: cell-based
T1 construct: host or cells: Ltk cells, expression induced with dexamethasone
T1 sequence (P47869 29-451): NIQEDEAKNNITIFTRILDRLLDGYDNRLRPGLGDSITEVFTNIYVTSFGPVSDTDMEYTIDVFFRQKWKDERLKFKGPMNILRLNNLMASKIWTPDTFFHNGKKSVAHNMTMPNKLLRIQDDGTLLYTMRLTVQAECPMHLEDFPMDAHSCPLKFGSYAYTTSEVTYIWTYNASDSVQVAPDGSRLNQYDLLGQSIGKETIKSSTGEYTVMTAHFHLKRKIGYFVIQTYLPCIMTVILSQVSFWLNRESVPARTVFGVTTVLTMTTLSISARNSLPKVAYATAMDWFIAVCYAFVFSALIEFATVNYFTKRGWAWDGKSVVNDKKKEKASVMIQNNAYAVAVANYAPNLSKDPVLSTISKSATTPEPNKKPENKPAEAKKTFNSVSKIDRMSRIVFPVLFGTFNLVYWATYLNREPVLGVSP
T1 sequence (P47870 25-512 limits assumed): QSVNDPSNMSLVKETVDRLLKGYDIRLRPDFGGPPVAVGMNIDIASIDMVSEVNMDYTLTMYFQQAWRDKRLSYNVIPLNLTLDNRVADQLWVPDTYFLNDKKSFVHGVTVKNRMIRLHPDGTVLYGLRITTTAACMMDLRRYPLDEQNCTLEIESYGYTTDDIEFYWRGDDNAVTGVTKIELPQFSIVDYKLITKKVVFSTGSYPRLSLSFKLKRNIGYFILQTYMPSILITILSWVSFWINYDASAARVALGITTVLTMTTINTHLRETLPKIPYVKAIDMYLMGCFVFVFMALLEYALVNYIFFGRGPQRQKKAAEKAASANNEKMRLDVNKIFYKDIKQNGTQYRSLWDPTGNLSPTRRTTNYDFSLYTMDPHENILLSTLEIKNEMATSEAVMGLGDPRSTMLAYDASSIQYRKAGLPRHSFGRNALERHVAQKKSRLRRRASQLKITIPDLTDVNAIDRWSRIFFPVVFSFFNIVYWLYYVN
T1 sequence (P18507 40-475): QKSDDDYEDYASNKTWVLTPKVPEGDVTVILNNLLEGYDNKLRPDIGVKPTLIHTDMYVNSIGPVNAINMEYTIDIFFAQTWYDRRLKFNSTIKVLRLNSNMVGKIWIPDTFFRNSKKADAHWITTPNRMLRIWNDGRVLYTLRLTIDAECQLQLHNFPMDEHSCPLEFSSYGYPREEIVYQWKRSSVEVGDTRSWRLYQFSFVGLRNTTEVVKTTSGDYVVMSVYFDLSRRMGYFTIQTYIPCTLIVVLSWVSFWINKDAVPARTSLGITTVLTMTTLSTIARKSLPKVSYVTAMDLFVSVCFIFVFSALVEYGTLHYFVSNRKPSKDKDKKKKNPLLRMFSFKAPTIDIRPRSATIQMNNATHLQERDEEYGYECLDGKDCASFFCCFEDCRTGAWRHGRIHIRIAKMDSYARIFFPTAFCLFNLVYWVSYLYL
Method: as §1
(§2) Used Ltk cells were stably transfected with recombinant GABAA cDNAs: α1β2γ2, α2β2γ2, α3β2γ2 or α5β2γ2 (B'SYS GmbH, Switzerland). […] For the electrophysiological experiments cells were cultivated, at a density that enabled single cells to be measured, in medium without antibiotics or antimycotics. Cells were tested 24-48 hours following induction of transgene expression with dexamethasone.
(§3) The whole-cell patch clamp recordings from transfected Ltk cells (voltage-clamped at a holding potential of −80 mV) were made using a EPC-7, HEKA Electronics amplifier. GABA inward-currents were measured upon application of 1 or 2 μM GABA to patch-clamped cells (at an EC5).
(§4) Analysis of Variance (ANOVA) with post test multisample comparison (Dunnett) was conducted with GraphPad Prism 4 Software.

[3] = target: T2, α5β2γ2 GABA receptors (Homo sapiens, UniProt P18507+P31644+P47870); assay: as above; assay type: cell-based
T2 construct: host or cells: Ltk cells, expression induced with dexamethasone
T2 sequence (P31644 32-462): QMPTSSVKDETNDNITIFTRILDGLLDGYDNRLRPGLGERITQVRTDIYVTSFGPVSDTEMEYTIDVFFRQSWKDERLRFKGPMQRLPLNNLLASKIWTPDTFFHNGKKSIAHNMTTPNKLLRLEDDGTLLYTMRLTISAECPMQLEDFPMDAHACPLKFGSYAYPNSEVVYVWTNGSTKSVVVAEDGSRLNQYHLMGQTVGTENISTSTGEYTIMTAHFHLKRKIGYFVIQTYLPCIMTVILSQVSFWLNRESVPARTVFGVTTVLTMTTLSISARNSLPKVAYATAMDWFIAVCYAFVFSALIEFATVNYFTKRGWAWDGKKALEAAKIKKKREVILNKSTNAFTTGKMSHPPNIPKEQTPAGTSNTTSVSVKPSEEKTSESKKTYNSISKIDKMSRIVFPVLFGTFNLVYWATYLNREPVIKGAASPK
T2 sequence (P47870 25-512 limits assumed): as the sequence (P47870 25-512 limits assumed) above
T2 sequence (P18507 40-475): as the sequence (P18507 40-475) above
Method: as §1, §2, §3, §4

[4] = target: T3, α3β2γ2 GABA receptors (Homo sapiens, UniProt P18507+P34903+P47870); assay: as above; assay type: cell-based
T3 construct: host or cells: Ltk cells, expression induced with dexamethasone
T3 sequence (P34903 29-492): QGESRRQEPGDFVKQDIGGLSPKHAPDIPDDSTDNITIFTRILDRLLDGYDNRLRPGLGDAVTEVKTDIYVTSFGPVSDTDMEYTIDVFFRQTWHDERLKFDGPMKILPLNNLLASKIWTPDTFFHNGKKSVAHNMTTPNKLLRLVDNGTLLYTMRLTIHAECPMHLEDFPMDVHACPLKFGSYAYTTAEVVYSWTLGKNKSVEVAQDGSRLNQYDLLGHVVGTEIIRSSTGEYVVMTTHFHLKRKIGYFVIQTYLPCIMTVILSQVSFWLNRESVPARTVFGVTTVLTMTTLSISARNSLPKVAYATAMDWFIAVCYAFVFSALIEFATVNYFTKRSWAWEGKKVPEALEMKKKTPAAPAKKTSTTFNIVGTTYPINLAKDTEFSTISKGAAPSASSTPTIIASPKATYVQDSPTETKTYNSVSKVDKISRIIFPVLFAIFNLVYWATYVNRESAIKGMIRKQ
T3 sequence (P47870 25-512 limits assumed): as the sequence (P47870 25-512 limits assumed) above
T3 sequence (P18507 40-475): as the sequence (P18507 40-475) above
Method: as §1, §2, §3, §4

[5] = target: T4, α1β2γ2 GABA receptors (Homo sapiens, UniProt P14867+P18507+P47870); assay: as above; assay type: cell-based
T4 construct: host or cells: Ltk cells, expression induced with dexamethasone
T4 sequence (P14867 28-456): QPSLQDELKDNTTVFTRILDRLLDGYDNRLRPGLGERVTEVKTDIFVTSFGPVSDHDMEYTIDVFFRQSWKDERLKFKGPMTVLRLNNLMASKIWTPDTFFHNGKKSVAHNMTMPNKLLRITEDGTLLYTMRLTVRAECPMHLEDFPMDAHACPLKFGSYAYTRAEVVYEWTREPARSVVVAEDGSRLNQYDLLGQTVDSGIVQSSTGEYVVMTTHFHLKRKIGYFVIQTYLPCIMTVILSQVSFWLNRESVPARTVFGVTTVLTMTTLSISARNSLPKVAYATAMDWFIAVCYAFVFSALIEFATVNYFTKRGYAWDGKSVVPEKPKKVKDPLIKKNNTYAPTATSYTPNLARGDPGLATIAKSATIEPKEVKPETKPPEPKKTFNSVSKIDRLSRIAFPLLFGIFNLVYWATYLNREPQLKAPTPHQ
T4 sequence (P47870 25-512 limits assumed): as the sequence (P47870 25-512 limits assumed) above
T4 sequence (P18507 40-475): as the sequence (P18507 40-475) above
Method: as §1, §2, §3, §4

[6] = target: T5, human T-type calcium channels hCav3.2 (Homo sapiens, UniProt O95180); assay: whole-cell patch-clamp, calcium peak currents in stably transfected HEK 293 cells; assay type: cell-based; set-up: blocked calcium peak currents by: unit not given here; details: for Relative current amplitude (%): hCav3.2 in HEK 293 cells; for IC50: two site binding model
T5 construct: expressed in transfected cells; host or cells: HEK 293 cells (European Collection of Animal Cell Culture)
Method: A study was carried out to determine the effect of eslicarbazepine.
Cells were stably transfected with hCav3.2 cDNA.
Calcium inward currents were measured upon depolarization of the cell membrane to −25 mV for 50 ms from a holding potential of −80 mV. This voltage protocol was run at intervals of 10 s until stabilization of evoked hCav3.2 currents. […] Vehicle was either bath solution or 0.2% DMSO.
Analysis of variance (ANOVA) with post test multisample comparison (Dunnett) was conducted with GraphPad Prism 4 Software. IC50 were calculated with the equation: […]

[7] = tested on: absence seizure; assay: mouse absence seizure models (γ-butyrolactone induced, SSADH null, stargazer, C3H/He); assay type: in vivo; details: mice models (a)-(d)
[8] = 50 μM with GABA at EC5, Ltk cells, Table 1
[9] = 100 μM with GABA at EC5, Ltk cells, Table 1
[10] = 250 μM with GABA at EC5, Ltk cells, Table 1
[11] = 500 μM with GABA at EC5, Ltk cells, Table 1
[12] = high affinity fit, read-out: hCav3.2 IC50 (μM) High affinity
[13] = low affinity fit, read-out: hCav3.2 IC50 (μM) Low affinity
[14] = 50 μM with GABA at EC5, Ltk cells, Table 2
[15] = 100 μM with GABA at EC5, Ltk cells, Table 2
[16] = 250 μM with GABA at EC5, Ltk cells, Table 2
[17] = 500 μM with GABA at EC5, Ltk cells, Table 2
[18] = 1000 μM with GABA at EC5, Ltk cells, Table 2

NC(=O)N1c2ccccc2C[C@@H](O)c2ccccc21 [R-licarbazepine]
effects upon sub-maximal GABA currents (in words) [1]: devoid of effects | Current stimulation (%) α2β2γ2 [2, 8]: 96.48 ± 2.11% | Current stimulation (%) α2β2γ2 [2, 9]: 97.03 ± 2.27% | Current stimulation (%) α2β2γ2 [2, 10]: 93.79 ± 3.09% | Current stimulation (%) α2β2γ2 [2, 11]: 87.75 ± 1.94 % | Current stimulation (%) α5β2γ2 [3, 8]: 96.13 ± 0.57% | Current stimulation (%) α5β2γ2 [3, 9]: 94.09 ± 1.27% | Current stimulation (%) α5β2γ2 [3, 10]: 97.24 ± 1.58% | Current stimulation (%) α5β2γ2 [3, 11]: 92.25 ± 1.29% | Current stimulation (%) α3β2γ2 [4, 8]: 99.53 ± 2.65% | Current stimulation (%) α3β2γ2 [4, 9]: 100.38 ± 1.56% | Current stimulation (%) α3β2γ2 [4, 10]: 102.94 ± 3.34% | Current stimulation (%) α3β2γ2 [4, 11]: 97.35 ± 2.91% | Current stimulation (%) α1β2γ2 [5, 8]: 99.85 ± 1.18% | Current stimulation (%) α1β2γ2 [5, 9]: 92.53 ± 4.53% | Current stimulation (%) α1β2γ2 [5, 10]: 91.73 ± 4.69% | Current stimulation (%) α1β2γ2 [5, 11]: 95.83 ± 6.63% | effect on hCav3.2 calcium peak currents (in words) [6]: dose dependently inhibited | Relative current amplitude (%) ([6]; 0.3 μM): 98.42 ± 1.33% | Relative current amplitude (%) ([6]; 1 μM): 92.43 ± 1.41% | Relative current amplitude (%) ([6]; 3 μM): 88.21 ± 1.03 % | Relative current amplitude (%) ([6]; 10 μM): 82.92 ± 1.29 % | Relative current amplitude (%) ([6]; 30 μM): 78.21 ± 2.14 % | Relative current amplitude (%) ([6]; 50 μM): 73.86 ± 3.78 % | Relative current amplitude (%) ([6]; 100 μM): 71.61 ± 1.68 % | Relative current amplitude (%) ([6]; 250 μM): 64.52 ± 3.05 % | Relative current amplitude (%) ([6]; 500 μM): 58.10 ± 2.74 % | Relative current amplitude (%) ([6]; 1000 μM): 39.37 ± 5.33 % | IC50 [6, 12]: 6.54 µM | IC50 [6, 13]: 883 µM

COCC(=O)O[C@]1(CCN(C)CCCc2nc3ccccc3[nH]2)CCc2cc(F)ccc2[C@@H]1C(C)C [Mibefradil]
effect on hCav3.2 calcium peak currents (in words) [6]: dose dependently inhibited

NC(=O)N1c2ccccc2C[C@H](O)c2ccccc21 [Eslicarbazepine, (S)-10-hydroxy-10,11-dihydro-5H-dibenz[b,f]azepine-5-carboxamide]
controlling seizures in mouse absence seizure models [7]: effective in controlling seizures | effects upon sub-maximal GABA currents (in words) [1]: devoid of effects | Current stimulation (%) α2β2γ2 [2, 8]: 91.58 ± 2.69% | Current stimulation (%) α2β2γ2 [2, 9]: 97.04 ± 2.65% | Current stimulation (%) α2β2γ2 [2, 10]: 88.56 ± 3.24 % | Current stimulation (%) α2β2γ2 [2, 11]: 89.80 ± 4.01% | Current stimulation (%) α5β2γ2 [3, 8]: 95.18 ± 2.18% | Current stimulation (%) α5β2γ2 [3, 9]: 93.89 ± 0.60% | Current stimulation (%) α5β2γ2 [3, 10]: 93.52 ± 1.75% | Current stimulation (%) α5β2γ2 [3, 11]: 89.65 ± 3.44% | Current stimulation (%) α3β2γ2 [4, 8]: 95.61 ± 4.75% | Current stimulation (%) α3β2γ2 [4, 9]: 97.93 ± 4.22% | Current stimulation (%) α3β2γ2 [4, 10]: 96.44 ± 2.16% | Current stimulation (%) α3β2γ2 [4, 11]: 91.63 ± 5.56% | Current stimulation (%) α1β2γ2 [5, 8]: 103.3 ± 1.96% | Current stimulation (%) α1β2γ2 [5, 9]: 95.92 ± 0.83% | Current stimulation (%) α1β2γ2 [5, 10]: 97.82 ± 1.13% | Current stimulation (%) α1β2γ2 [5, 11]: 99.39 ± 0.80% | effect on hCav3.2 calcium peak currents (in words) [6]: dose dependently inhibited; also recorded: effectively inhibits high and low affinity hCav3.2 inward currents | Relative current amplitude (%) ([6]; 0.3 μM): 86.99 ± 1.56 % | Relative current amplitude (%) ([6]; 1 μM): 81.61 ± 1.31 % | Relative current amplitude (%) ([6]; 3 μM): 76.21 ± 1.61 % | Relative current amplitude (%) ([6]; 10 μM): 71.22 ± 2.40 % | Relative current amplitude (%) ([6]; 30 μM): 73.04 ± 1.64 % | Relative current amplitude (%) ([6]; 50 μM): 61.44 ± 4.96 % | Relative current amplitude (%) ([6]; 100 μM): 54.68 ± 6.35 % | Relative current amplitude (%) ([6]; 250 μM): 46.92 ± 6.64 % | Relative current amplitude (%) ([6]; 500 μM): 51.83 ± 4.77 % | Relative current amplitude (%) ([6]; 1000 μM): 45.48 ± 4.94 % | IC50 [6, 12]: 0.43 µM | IC50 [6, 13]: 62.6 µM

NC(=O)N1c2ccccc2C=Cc2ccccc21 [Carbamazepine, 5H-dibenzo[b,f]azepine-5-carboxamide]
Current stimulation (%) α2β2γ2 [2, 14]: 97.94 ± 3.34% | Current stimulation (%) α2β2γ2 [2, 15]: 111.36 ± 2.65% | Current stimulation (%) α2β2γ2 [2, 16]: 109.03 ± 7.61% | Current stimulation (%) α2β2γ2 [2, 17]: 103.60 ± 7.61% | Current stimulation (%) α2β2γ2 [2, 18]: 104.18 ± 2.66% | Current stimulation (%) α5β2γ2 [3, 14]: 103.82 ± 1.50% | Current stimulation (%) α5β2γ2 [3, 15]: 103.83 ± 4.53% | Current stimulation (%) α5β2γ2 [3, 16]: 93.59 ± 4.30% | Current stimulation (%) α5β2γ2 [3, 17]: 80.65 ± 5.86% | Current stimulation (%) α5β2γ2 [3, 18]: 63.01 ± 4.50 % | Current stimulation (%) α3β2γ2 [4, 14]: 93.32 ± 4.07% | Current stimulation (%) α3β2γ2 [4, 15]: 112.76 ± 5.40% | Current stimulation (%) α3β2γ2 [4, 16]: 131.06 ± 9.39% | Current stimulation (%) α3β2γ2 [4, 17]: 120.27 ± 11.81% | Current stimulation (%) α3β2γ2 [4, 18]: 166.66 ± 21.00 % | Current stimulation (%) α1β2γ2 [5, 14]: 104.30 ± 5.02% | Current stimulation (%) α1β2γ2 [5, 15]: 117.38 ± 4.94% | Current stimulation (%) α1β2γ2 [5, 16]: 115.68 ± 5.31% | Current stimulation (%) α1β2γ2 [5, 17]: 132.42 ± 5.31 % | Current stimulation (%) α1β2γ2 [5, 18]: 150.26 ± 15.48 % | effect on hCav3.2 calcium peak currents (in words) [6]: dose dependently inhibited | Relative current amplitude (%) ([6]; 25 μM): 87.58 ± 2.94% | Relative current amplitude (%) ([6]; 50 μM): 76.53 ± 5.48% | Relative current amplitude (%) ([6]; 100 μM): 69.98 ± 4.47% | Relative current amplitude (%) ([6]; 250 μM): 59.47 ± 6.06 % | Relative current amplitude (%) ([6]; 500 μM): 45.66 ± 7.45 % | IC50 [6, 12]: 27.1 µM | IC50 [6, 13]: 711 µM

NC(=O)N1c2ccccc2CC(=O)c2ccccc21 [Oxcarbazepine, 10,11-dihydro-10-oxo-5H-dibenz[b,f]azepine-5-carboxamide]
effect on hCav3.2 currents (in words) ([6]; up to 30 μM): devoid of effect

CCCC(CCC)C(=O)O [valproic acid]
blocked calcium peak currents by ([6]; 1 mM, n=8 cells): 66.15±2.05

Cc1ncc2n1-c1ccc(Cl)cc1C(c1ccccc1F)=NC2 [Midazolam]
Current stimulation (%) α1β2γ2 ([5]; 3 μM with GABA at EC5, Ltk cells, Table 1): 184.81 ± 32.93 %
